Source: patent publication US6562115B2, “Azo dyes and their preparation and use” (Ilford Imaging Switzerland GmbH, priority 2000, dated 2003)

Test: Dye solubility in deionised water
Type: physicochemical
Details: for solubility (in words): assessment of state-of-the-art dyes in the background section
Protocol: An excess of dye was vigorously stirred in deionised water for 1 hour at a temperature of 50° C. The mixture was then cooled down to a temperature of 20° C. and filtered. Dye solubility was determined spectroscopically in the clear filtered solution.

| Molecule | solubility in comparison to the known dye Acid Red 37 (comparison drawn from Table 3) | solubility (in words) | Solubility (in g per 100 ml of water) (excess dye stirred in deionised water 1 hour at 50° C., cooled to 20° C., filtered, determined spectroscopically) |
| --- | --- | --- | --- |
| Nc1ccc2cc(S(=O)(=O)[O-])cc(O)c2c1N=Nc1cc(NC(=O)CCC(=O)[O-])ccc1S(=O)(=O)[O-].[Na+].[Na+].[Na+] [Compound 120] | significantly higher | – | – |
| Nc1ccc2cc(S(=O)(=O)[O-])cc(O)c2c1N=Nc1ccc(Nc2nc(NCCS(=O)(=O)[O-])nc(NCCS(=O)(=O)[O-])n2)cc1S(=O)(=O)[O-].[Na+].[Na+].[Na+].[Na+] [II] | – | high solubility | – |
| Acid Red 37 | – | not sufficient | 5 g per 100 ml of water |
